According to US9290427B2, “Anti-invasive compounds” (Universiteit Gent, priority 2012, dated 2016):

What was measured:
[1] = tested on: MCF-7/6 mammary carcinoma cell line; test: in vivo survival study after intracardial injection of MCF-7/6 cells; parameters: species or system Swiss nu/nu mice; settings: for # at risk / # deaths / psurv: 10 nmol i.p. thrice a week; for pcum: cumulative probability of survival
Protocol: In order to evaluate the in vivo potency of 4-fluoro-3′,4′,5′-trimethoxychalcone 49 against the MCF-7/6 mammary carcinoma cell line, a broadly used metastasis experiment involving intracardial injection of the cancer cells was conducted. One week after subcutaneous implantation of an estrogen pellet (1 mg) in the dorsal region of the neck, […] Swiss nu/nu mice were injected in the left cardiac ventricle with 1.10^5 MCF-7/6 cells under xylazine and ketamine anesthesia (Smith W., 1993).
By virtue of injection into the left cardiac ventricle, cancer cells directly enter systemic arterial circulation, which enhances the chance for colonization (Arguello et al., 1988). […] However, since these metastases are difficultly detectable and quantifiable, survival time was chosen as the sole end point in this study.
Upon inoculation, mice were divided randomly into two equal groups. One cohort was intraperitoneally injected with 10 nmol of 49 thrice a week (160 μg·kg^−1 for a 20 g animal), while the other group only received the vehicle (100 μL of serum-free DMEM containing 1:1000 DMSO).
Twenty 6-week old female Swiss nu/nu mice were given a subcutaneous estrogen implant (1 mg) in the dorsal region of the neck. One week later, intracardial injection of 100,000 MCF-7/6 cells in […] of PBS^D^+ was performed. Animals were anesthesized priorly by i.p. injection of xylazine (5 μL, Rompun®) and ketamine (36 μL, Ketalar®). Intracardial injection was performed with a 30 G needle (½″), which was introduced into the thoracic cavity underneath the sternum. Upon protrusion of the wall of the left ventricle, blood is pumped into the syringe. At this moment, careful injection of the cancer cells can be conducted. Next, mice were randomly divided into a vehicle control and a 49-treated cohort.
From the inoculation date on, mice were treated i.p. three times a week with 100 μL of a 100 μmol·L^−1 solution of 49 in serum-free DMEM containing 1:1000 DMSO, or with vehicle alone (see “preparation procedure”). Survival numbers for both cages were recorded on a daily basis.
“Preparation procedure”: for the 49-treated group, 100 mmol·L^−1 solutions of 49 in DMSO were freshly prepared on each injection day, and diluted 1:1000 with serum-free DMEM so as to obtain injectable solutions of 100 μmol·L^−1 of 49. Control mice were given i.p. injections with 100 μL of the vehicle (1:1000 DMSO in serum-free DMEM).

[2] = tested on: MCF-7/6 cells; test: MTT test, MCF-7/6; format: cell-based, human; settings: for decrease in mitochondrial activity: FIG. 5
Protocol: (§1) An MTT test provides an indication of cell viability, proliferation and activity through determination of the mitochondrial conversion of 3-(4,5-dimethylthiazol-2-yl)-2,5-diphenyltetrazolium bromide (MTT), a yellow salt, into formazan, a salt that precipitates under the form of blue crystals.
(§2) In concreto, 5,000 cells are seeded in a cup of a 96 well-plate, treated with the desired amount of the test substance, and incubated for a chosen period of time. Next, 40 μL of a filtered (0.2 μm) 5 mg·mL^−1 solution of MTT in PBS is added to the cup. After 2 h of incubation at 37° C. in the dark, all liquid is removed. The obtained formazan salts are dissolved in 200 μL of DMSO, whereupon optical density is measured at 490 nm.
The effects of some chalcone-like compounds on the proliferation of MCF-7/6 cells were investigated. A commonly used method to quantify the metabolic activity of cells and thus to a certain degree cell viability—is the MTT assay. This test provides a measure of mitochondrial activity, as it assesses the reduction of 3-(4,5-dimethylthiazol-2-yl)-2,5-diphenyltetrazolium bromide (MTT), a yellow tetrazole, to the purple formazan; this transformation occurs in the mitochondria of living cells (Mosmann T., 1983).
Thus, the influence of 13 compounds on the mitochondrial activity of MCF-7/6 cells was determined at 3 different concentrations, both after 24 and 48 h of incubation. Assessment of the mitochondrial activity after 192 h of incubation, which would correspond to the duration of the CHI assay, was not possible as the degree of confluence of the cells was too high at that time point.
The antiproliferative effects of 4-fluoro-3′,4′,5′-trimethoxychalcone on MCF-7/6 cells were further assessed in the MTT assay upon prolonged incubation, as this would provide a higher degree of relevance to the CHI assay, which has an 8-day incubation period. As mentioned above, cell confluence was too high after 192 h; therefore, an incubation time of 144 h was considered a good compromise.

[3] = tested on: MCF-7/LucF5 cells; test: MTT test, MCF-7/LucF5; format: cell-based, human
Protocol: as §1, §2
In order to further validate the use of the MCF-7/LucF5 cells in our in vivo experiments, the effects of 4-fluoro-3′,4′,5′-trimethoxychalcone on this cell line in the MTT and SRB assays were determined as well (Van Hoorde L. et al., 1999).

[4] = tested on: CT5.3 myofibroblasts; test: MTT test, CT5.3; format: cell-based, human; settings: 10 μmol·L−1, 24 h
Protocol: as §1, §2
In order to verify whether the antiproliferative effects of compound 49, witnessed in BLM and MCF-7/6 cells at high concentrations, were cell specific, additional SRB and MTT assays on a further five cell lines (HCT8-E11, TR146, FaDu, 3T3-L1 and CT5.3) were conducted (FIG. 8). The results for MCF-7/6 cells were added to facilitate comparison.
The CT5.3 cell line consists of human myofibroblasts which were isolated from a colon tumor (Van Hoorde et al., 1999). 3T3-L1 cells are murine fibroblasts, originating from embryo's of Swiss mice (Todaro and Green, 1963). HCT8-E11, FaDu and TR146 are human epithelial cancer cell lines. […]

[5] = elevated concentrations 10-100 μmol·L−1, summary

## COc1cc(C(=O)/C=C/c2ccc(F)cc2)cc(OC)c1OC [Compound 49, (2E)-3-(4-Fluorophenyl)-1-(3,4,5-trimethoxyphenyl)propenone]
[1]; Day 5
  # at risk: 10
  # deaths: 1
  psurv: 0.9
  pcum: 0.9
[1]; Day 40
  # at risk: 9
  # deaths: 1
  psurv: 0.89
  pcum: 0.8
[1]; Day 61
  # at risk: 8
  psurv: 1
  pcum: 0.8
[2]; 0.1 μmol·L−1, FIG. 6
  mitochondrial activity relative to solvent control: increased significantly
[2]; 1 μmol·L−1, 24 h
  mitochondrial activity: the same trend, but without significance
[2]; 5 μmol·L−1, 24 h
  decrease in mitochondrial activity: 35%
[2]; 5 μmol·L−1, 48 h
  decrease in mitochondrial activity: 25%
[2]; 10 μmol·L−1, 24 h
  reduction in mitochondrial activity: 40%
[2]; 100 and 10 μmol·L−1, FIG. 6 (72 and 144 h), p<0.01
  mitochondrial activity relative to solvent control: significant reduction
[2]; [5]
  reduction in mitochondrial activity: ~50%
[3]; 0.1 μmol·L−1, 72 h (p=0.0196)
  mitochondrial activity: significant reduction
[3]; 0.1 μmol·L−1, 144 h
  viability (mitochondrial activity): restoration of viability to the control level
[3]; 100 and 10 μmol·L−1, 72 and 144 h
  mitochondrial activity: significant reduction
[3]; [5]
  reduction in mitochondrial activity: ~50%
[4]
  decrease in mitochondrial activity: 22%
